From patent US10632125B2, “MTH1 inhibitors for treatment of inflammatory and autoimmune conditions” (THOMAS HELLEDAYS STIFTELSE FÖR MEDICINSK FORSKNING, priority 2014, dated 2020)

target: MTH1 (Homo sapiens, UniProt P36639); assay: MTH1 enzymatic assay (malachite green, coupled to pyrophosphatase); format: biochemical; conditions: not given

| Structure (SMILES) | IC50 |
| --- | --- |
| [2H]C([2H])([2H])Nc1cc(-c2cccc(Cl)c2Cl)nc(N)n1 [Example 421, 6-(2,3-dichlorophenyl)-4-N-(^2H3)methylpyrimidine-2,4-diamine] | < 200 nM |

same assay, conditions: dGTP 100 μM, MTH1 6 nM; 96- or 384-well format; read-out: IC50

| Structure (SMILES) | IC50 |
| --- | --- |
| Cc1cccc(-c2cc(NC3(Cc4ccc(Cl)cc4)CC3)nc(N)n2)c1C [Example 417, 4-N-{1-[(4-Chlorophenyl)methyl]cyclopropyl}-6-(2,3-dimethylphenyl)pyrimidine-2,4-diamine] | < 200 nM |
| Cc1c(F)ccc(-c2cc(NCCc3ccc(S(N)(=O)=O)cc3)nc(N)n2)c1C [Example 425, 4-(2-{[2-amino-6-(4-fluoro-2,3-dimethylphenyl)pyrimidin-4-yl]amino}ethyl)benzene-1-sulfonamide] | < 200 nM |
| Cc1ccc(Cl)cc1-c1cc(NCCc2ccc(S(N)(=O)=O)cc2)nc(N)n1 [Example 427, 4-(2-{[2-amino-6-(5-chloro-2-methylphenyl)pyrimidin-4-yl]amino}ethyl)benzene-1-sulfonamide] | < 200 nM |
| Cc1c(-c2cc(NCCc3ccc(S(C)(=O)=O)cc3)nc(N)n2)ccc(Cl)c1Cl [Example 431, 6-(3,4-dichloro-2-methylphenyl)-4-N-[2-(4-methanesulfonylphenyl)ethyl]pyrimidine-2,4-diamine] | < 200 nM |
| Nc1nc(NCCc2ccc(S(N)(=O)=O)cc2)cc(-c2ccc(F)cc2Cl)n1 [Example 433, 4-(2-{[2-amino-6-(2-chloro-4-fluorophenyl)pyrimidin-4-yl]amino}ethyl)benzene-1-sulfonamide] | < 200 nM |
| Cc1cc(-c2cc(NCCc3ccc(S(N)(=O)=O)cc3)nc(N)n2)ccc1F [Example 435, 4-(2-{[2-amino-6-(4-fluoro-3-methylphenyl)pyrimidin-4-yl]amino}ethyl)benzene-1-sulfonamide] | < 200 nM |
| Cc1c(C#N)cccc1-c1cc(NC2CC2)nc(N)n1 [Example 437, 3-[2-amino-6-(cyclopropylamino)pyrimidin-4-yl]-2-methylbenzonitrile] | < 200 nM |
| C#CCNc1cc(-c2cccc(Cl)c2Cl)nc(N)n1 [Example 438, 6-(2,3-dichlorophenyl)-4-N-(prop-2-yn-1-yl)pyrimidine-2,4-diamine] | < 200 nM |
| Cc1cccc(-c2cc(NCCc3c(C)n[nH]c3C)nc(N)n2)c1C [Example 440, 4-N-[2-(3,5-dimethyl-1H-pyrazol-4-yl)ethyl]-6-(2,3-dimethylphenyl)pyrimidine-2,4-diamine] | < 200 nM |
| Cc1cccc(-c2cc(NCCNc3ccc(Cl)nn3)nc(N)n2)c1C [Example 441, 4-N-{2-[(6-chloropyridazin-3-yl)amino]ethyl}-6-(2,3-dimethylphenyl)pyrimidine-2,4-diamine] | < 200 nM |
| Cc1cccc(-c2cc(NCCNc3cc(C#N)ccn3)nc(N)n2)c1C [Example 442, 2-[(2-{[2-amino-6-(2,3-dimethylphenyl)pyrimidin-4-yl]amino}ethyl)amino]pyridine-4-carbonitrile] | < 200 nM |
| Cc1ccc(NCCNc2cc(-c3cccc(C)c3C)nc(N)n2)cc1F [Example 448, 6-(2,3-dimethylphenyl)-4-N-{2-[(3-fluoro-4-methylphenyl)amino]ethyl}pyrimidine-2,4-diamine] | < 200 nM |
| Cc1cccc(-c2cc(NCCNc3ccc(Cl)c(Cl)c3)nc(N)n2)c1C [Example 449, 4-N-{2-[(3,4-dichlorophenyl)amino]ethyl}-6-(2,3-dimethylphenyl)pyrimidine-2,4-diamine] | < 200 nM |
| Cc1cccc(-c2cc(NCCNc3ccc(Cl)cn3)nc(N)n2)c1C [Example 450, 4-N-{2-[(5-chloropyridin-2-yl)amino]ethyl}-6-(2,3-dimethylphenyl)pyrimidine-2,4-diamine] | < 200 nM |
| Cc1cccc(-c2cc(NCCNc3ccc(S(N)(=O)=O)cc3)nc(N)n2)c1C [Example 452, 4-[(2-{[2-amino-6-(2,3-dimethylphenyl)pyrimidin-4-yl]amino}ethyl)amino]benzene-1-sulfonamide] | < 200 nM |
| Cc1c(Cl)cccc1-c1cc(NCCc2ccc(Cl)cc2)nc(N)n1 [Example 461, 6-(3-chloro-2-methylphenyl)-4-N-[2-(4-chlorophenyl)ethyl]pyrimidine-2,4-diamine] | < 200 nM |
| CNc1cc(-c2ccsc2)nc(N)n1 [Example 463, 4-N-methyl-6-(thiophen-3-yl)pyrimidine-2,4-diamine] | < 200 nM |
| CNc1cc(-c2cc(C)cs2)nc(N)n1 [Example 464, 4-N-methyl-6-(4-methylthiophen-2-yl)pyrimidine-2,4-diamine] | < 200 nM |
| CNc1cc(-c2ccnn2C)nc(N)n1 [Example 465, 4-N-methyl-6-(1-methyl-1H-pyrazol-5-yl)pyrimidine-2,4-diamine] | < 200 nM |
| Nc1nc(NCCNc2ccc(Br)cn2)cc(-c2cccc(Cl)c2Cl)n1 [Example 466, 4-N-{2-[(5-bromopyridin-2-yl)amino]ethyl}-6-(2,3-dichlorophenyl)pyrimidine-2,4-diamine] | < 200 nM |
| CNc1cc(-c2cc[nH]c2)nc(N)n1 [Example 468, 4-N-methyl-6-(1H-pyrrol-3-yl)pyrimidine-2,4-diamine] | < 200 nM |

| Structure (SMILES) | IC50 |
| --- | --- |
| COCC(=O)NCCCCNc1cc(-c2cccc(Cl)c2Cl)nc(N)n1 [Example 469, N-(4-{[2-amino-6-(2,3-dichlorophenyl)pyrimidin-4-yl]amino}butyl)-2-methoxyacetamide] | < 200 nM |
| Nc1nc(NCCCCNC(=O)C(F)(F)F)cc(-c2cccc(Cl)c2Cl)n1 [Example 470, N-(4-{[2-amino-6-(2,3-dichlorophenyl)pyrimidin-4-yl]amino}butyl)-2,2,2-trifluoroacetamide] | < 200 nM |
| CS(=O)(=O)c1ccc(C(=O)NCCCCNc2cc(-c3cccc(Cl)c3Cl)nc(N)n2)cc1 [Example 471, N-(4-{[2-amino-6-(2,3-dichlorophenyl)pyrimidin-4-yl]amino}butyl)-4-methanesulfonylbenzamide] | < 200 nM |
| Nc1nc(NCCCCNC(=O)c2ccno2)cc(-c2cccc(Cl)c2Cl)n1 [Example 472, N-(4-{[2-amino-6-(2,3-dichlorophenyl)pyrimidin-4-yl]amino}butyl)-1,2-oxazole-5-carboxamide] | < 200 nM |
| Nc1nc(NCCCCNC(=O)c2ccc(Cl)c(Cl)c2)cc(-c2cccc(Cl)c2Cl)n1 [Example 473, N-(4-{[2-amino-6-(2,3-dichlorophenyl)pyrimidin-4-yl]amino}butyl)-3,4-dichlorobenzamide] | < 200 nM |
| CC(C)(C)C(=O)NCCCCNc1cc(-c2cccc(Cl)c2Cl)nc(N)n1 [Example 474, N-(4-{[2-amino-6-(2,3-dichlorophenyl)pyrimidin-4-yl]amino}butyl)-2,2-dimethylpropanamide] | < 200 nM |
| CS(=O)(=O)c1ccc(S(=O)(=O)NCCCCNc2cc(-c3cccc(Cl)c3Cl)nc(N)n2)cc1 [Example 475, N-(4-{[2-amino-6-(2,3-dichlorophenyl)pyrimidin-4-yl]amino}butyl)-4-methanesulfonylbenzene-1-sulfonamide] | < 200 nM |
| CNc1cc(-c2ccoc2C)nc(N)n1 [Example 478, 4-N-methyl-6-(2-methylfuran-3-yl)pyrimidine-2,4-diamine] | < 200 nM |
| CNc1cc(-c2ccc(CN3CCCC3)s2)nc(N)n1 [Example 479, 4-N-methyl-6-[5-(pyrrolidin-1-ylmethyl)thiophen-2-yl]pyrimidine-2,4-diamine] | < 200 nM |
| Nc1nc(NCCc2ccc(Cl)cc2)cc(-c2ccccc2CO)n1 [Example 481, [2-(2-amino-6-{[2-(4-chlorophenyl)ethyl]amino}pyrimidin-4-yl)phenyl]methanol] | < 200 nM |
| Cc1c(Cl)cccc1-c1cc(NC2CC2)nc(N)n1 [Example 482, 6-(3-chloro-2-methylphenyl)-4-N-cyclopropylpyrimidine-2,4-diamine] | < 200 nM |
| Cc1c(Cl)cccc1-c1cc(NCCF)nc(N)n1 [Example 483, 6-(3-chloro-2-methylphenyl)-4-N-(2-fluoroethyl)pyrimidine-2,4-diamine] | < 200 nM |
| Cc1cccc(-c2cc(NCCF)nc(N)n2)c1C [Example 484, 6-(2,3-dimethylphenyl)-4-N-(2-fluoroethyl)pyrimidine-2,4-diamine] | < 200 nM |
| CNc1cc(-c2cnn(CCC(N)=O)c2)nc(N)n1 [Example 487, 3-{4-[2-amino-6-(methylamino)pyrimidin-4-yl]-1H-pyrazol-1-yl}propanamide] | < 200 nM |
| COc1cc(C)c(NCCNc2cc(-c3cccc(C)c3C)nc(N)n2)cn1 [Example 490, 6-(2,3-dimethylphenyl)-4-N-{2-[(6-methoxy-4-methylpyridin-3-yl)amino]ethyl}pyrimidine-2,4-diamine] | < 200 nM |
| NC(=O)COc1cccc(-c2cc(NCCc3ccc(Cl)cc3)nc(N)n2)c1 [Example 498, 2-[3-(2-amino-6-{[2-(4-chlorophenyl)ethyl]amino}pyrimidin-4-yl)phenoxy]acetamide] | < 200 nM |
| Cc1cccc(-c2cc(NCCNc3cnccn3)nc(N)n2)c1C [Example 500, 6-(2,3-dimethylphenyl)-4-N-{2-[(pyrazin-2-yl)amino]ethyl}pyrimidine-2,4-diamine] | < 200 nM |
| Cc1cccc(-c2cc(NCCNc3cc(Cl)ncn3)nc(N)n2)c1C [Example 501, 4-N-{2-[(6-chloropyrimidin-4-yl)amino]ethyl}-6-(2,3-dimethylphenyl)pyrimidine-2,4-diamine] | < 200 nM |
| CNc1cc(-c2ccccc2CO)nc(N)n1 [Example 508, {2-[2-amino-6-(methylamino)pyrimidin-4-yl]phenyl}methanol] | < 200 nM |
| Nc1nc(NCCc2ccc(S(N)(=O)=O)cc2)cc(-c2ccccc2CO)n1 [Example 509, 4-[2-({2-amino-6-[2-(hydroxymethyl)phenyl]pyrimidin-4-yl}amino)ethyl]benzene-1-sulfonamide] | < 200 nM |
| Cc1cccc(-c2cc(NCCNc3cc(C(N)=O)ccn3)nc(N)n2)c1C [Example 514, 2-[(2-{[2-amino-6-(2,3-dimethylphenyl)pyrimidin-4-yl]amino}ethyl)amino]pyridine-4-carboxamide] | < 200 nM |
